Measurements: paper PMC12136037, “Type II kinase inhibitors that target Parkinson’s disease–associated LRRK2” (Science Advances, 2025)
Read-outs that look alike come from different tables or passages of the source.

Tests used:
Assay in all cases: DSF 100 kinase selectivity screen;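 note: compound tested at 20 µM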
Assay type in all cases: binding
[1] = target: T1, ~100 representative kinases (Homo sapiens, UniProt O15264); conditions: protein MAPK13; average of three replicates
T1 construct: Recombinant protein kinase domains with a concentration of 2 μM
T1 sequence (O15264 1-365): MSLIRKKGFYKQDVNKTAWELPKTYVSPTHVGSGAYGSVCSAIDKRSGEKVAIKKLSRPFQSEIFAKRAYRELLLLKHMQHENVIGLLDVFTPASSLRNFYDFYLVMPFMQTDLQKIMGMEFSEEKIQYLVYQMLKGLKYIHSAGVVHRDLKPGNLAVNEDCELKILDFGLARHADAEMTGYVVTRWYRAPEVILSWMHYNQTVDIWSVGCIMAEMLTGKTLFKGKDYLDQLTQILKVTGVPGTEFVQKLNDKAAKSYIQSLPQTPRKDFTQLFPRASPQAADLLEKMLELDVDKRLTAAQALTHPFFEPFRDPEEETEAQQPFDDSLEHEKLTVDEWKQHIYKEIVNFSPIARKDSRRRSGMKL
Procedure, shortened: (§1)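 Each kinase domain, at 2 μM, is mixed with 20 μM test compound and SYPRO Orange in Hepes (20 mM, pH 7.5) with 500 mM NaCl. Temperature is then raised at 3°C/min and fluorescence-monitored unfolding yields the melting temperature change, ΔTm in degrees Celsius.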

[2] = target: T2, ~100 representative kinases (Homo sapiens, UniProt P15056); conditions: Protein BRAF; average of three replicates
T2 construct: Recombinant protein kinase domains with a concentration of 2 μM
T2 sequence (P15056 whole entry, the tested form may be a part): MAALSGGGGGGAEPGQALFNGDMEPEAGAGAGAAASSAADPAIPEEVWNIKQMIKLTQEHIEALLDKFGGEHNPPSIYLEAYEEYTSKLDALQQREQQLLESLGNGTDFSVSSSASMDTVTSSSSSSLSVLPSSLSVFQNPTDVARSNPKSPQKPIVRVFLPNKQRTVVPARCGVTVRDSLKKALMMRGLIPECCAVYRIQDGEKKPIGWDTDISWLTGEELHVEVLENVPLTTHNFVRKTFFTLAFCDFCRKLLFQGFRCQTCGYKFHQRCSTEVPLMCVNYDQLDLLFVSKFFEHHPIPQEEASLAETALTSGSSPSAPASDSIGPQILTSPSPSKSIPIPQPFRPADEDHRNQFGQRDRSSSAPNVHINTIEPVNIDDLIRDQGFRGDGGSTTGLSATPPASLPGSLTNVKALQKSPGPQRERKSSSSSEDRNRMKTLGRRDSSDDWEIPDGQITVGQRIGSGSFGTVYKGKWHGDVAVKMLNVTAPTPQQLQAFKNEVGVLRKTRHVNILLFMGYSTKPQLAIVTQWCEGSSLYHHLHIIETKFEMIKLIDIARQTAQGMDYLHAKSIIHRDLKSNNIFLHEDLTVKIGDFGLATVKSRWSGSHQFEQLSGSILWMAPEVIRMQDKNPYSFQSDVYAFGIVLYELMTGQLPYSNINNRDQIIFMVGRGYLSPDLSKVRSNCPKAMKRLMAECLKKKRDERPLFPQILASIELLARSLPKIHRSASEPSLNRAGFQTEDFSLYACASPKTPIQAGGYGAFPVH
Procedure, shortened: as §1

[3] = target: T3, ~100 representative kinases (Homo sapiens, UniProt P16083); conditions: protein NQO2; average of three replicates
T3 construct: Recombinant protein kinase domains with a concentration of 2 μM
T3 sequence (P16083 1-231): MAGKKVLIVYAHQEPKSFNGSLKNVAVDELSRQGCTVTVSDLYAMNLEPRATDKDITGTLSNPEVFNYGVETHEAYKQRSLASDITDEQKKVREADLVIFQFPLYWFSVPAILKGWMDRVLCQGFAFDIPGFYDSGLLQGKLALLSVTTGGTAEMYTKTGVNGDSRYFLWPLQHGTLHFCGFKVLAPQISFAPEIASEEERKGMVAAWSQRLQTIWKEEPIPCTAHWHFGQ
Procedure, shortened: as §1

[4] = target: T4, ~100 representative kinases (Homo sapiens, UniProt P33981); conditions: Protein TTK; DSF; average of three replicates
T4 construct: Recombinant protein kinase domains with a concentration of 2 μM
T4 sequence (P33981 1-857): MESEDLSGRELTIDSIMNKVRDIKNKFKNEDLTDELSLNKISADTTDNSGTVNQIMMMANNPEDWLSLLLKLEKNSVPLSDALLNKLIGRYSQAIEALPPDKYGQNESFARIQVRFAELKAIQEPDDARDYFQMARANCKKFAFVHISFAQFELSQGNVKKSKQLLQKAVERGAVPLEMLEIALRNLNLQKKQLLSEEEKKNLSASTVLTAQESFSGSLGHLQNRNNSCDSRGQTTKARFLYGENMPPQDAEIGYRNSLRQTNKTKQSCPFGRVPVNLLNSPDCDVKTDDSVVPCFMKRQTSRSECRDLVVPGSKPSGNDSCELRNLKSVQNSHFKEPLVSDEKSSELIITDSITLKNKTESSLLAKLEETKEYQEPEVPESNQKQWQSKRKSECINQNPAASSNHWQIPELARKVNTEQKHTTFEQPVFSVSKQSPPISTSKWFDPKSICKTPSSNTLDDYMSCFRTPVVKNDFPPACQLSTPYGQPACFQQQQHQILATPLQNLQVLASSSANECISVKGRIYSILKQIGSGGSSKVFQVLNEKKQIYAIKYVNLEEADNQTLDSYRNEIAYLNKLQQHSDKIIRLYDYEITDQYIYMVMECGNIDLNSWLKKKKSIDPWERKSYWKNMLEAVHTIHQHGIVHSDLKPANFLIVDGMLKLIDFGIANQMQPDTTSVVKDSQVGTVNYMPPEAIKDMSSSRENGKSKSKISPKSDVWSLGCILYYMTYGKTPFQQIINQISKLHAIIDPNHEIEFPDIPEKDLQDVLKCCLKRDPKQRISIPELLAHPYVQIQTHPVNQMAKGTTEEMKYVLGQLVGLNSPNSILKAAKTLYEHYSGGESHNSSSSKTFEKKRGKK
Procedure, shortened: as §1

[5] = target: T5, ~100 representative kinases (Homo sapiens, UniProt P45985); conditions: protein MAP2K4; average of three replicates
T5 construct: Recombinant protein kinase domains with a concentration of 2 μM
T5 sequence (P45985 1-399): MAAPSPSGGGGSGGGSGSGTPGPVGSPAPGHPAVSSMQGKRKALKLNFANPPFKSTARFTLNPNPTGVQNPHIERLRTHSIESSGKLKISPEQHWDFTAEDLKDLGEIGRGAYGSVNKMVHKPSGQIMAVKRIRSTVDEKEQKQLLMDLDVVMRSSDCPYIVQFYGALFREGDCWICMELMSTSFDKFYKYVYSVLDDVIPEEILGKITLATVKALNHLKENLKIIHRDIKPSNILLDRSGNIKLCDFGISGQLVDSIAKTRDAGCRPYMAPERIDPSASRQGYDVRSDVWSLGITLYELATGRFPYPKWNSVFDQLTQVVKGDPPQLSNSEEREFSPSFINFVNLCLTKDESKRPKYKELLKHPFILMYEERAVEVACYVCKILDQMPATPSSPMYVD
Procedure, shortened: as §1

[6] = target: T6, ~100 representative kinases (Homo sapiens, UniProt Q00536)
T6 construct: Recombinant protein kinase domains with a concentration of 2 μM
T6 sequence (Q00536 whole entry, the tested form may be a part): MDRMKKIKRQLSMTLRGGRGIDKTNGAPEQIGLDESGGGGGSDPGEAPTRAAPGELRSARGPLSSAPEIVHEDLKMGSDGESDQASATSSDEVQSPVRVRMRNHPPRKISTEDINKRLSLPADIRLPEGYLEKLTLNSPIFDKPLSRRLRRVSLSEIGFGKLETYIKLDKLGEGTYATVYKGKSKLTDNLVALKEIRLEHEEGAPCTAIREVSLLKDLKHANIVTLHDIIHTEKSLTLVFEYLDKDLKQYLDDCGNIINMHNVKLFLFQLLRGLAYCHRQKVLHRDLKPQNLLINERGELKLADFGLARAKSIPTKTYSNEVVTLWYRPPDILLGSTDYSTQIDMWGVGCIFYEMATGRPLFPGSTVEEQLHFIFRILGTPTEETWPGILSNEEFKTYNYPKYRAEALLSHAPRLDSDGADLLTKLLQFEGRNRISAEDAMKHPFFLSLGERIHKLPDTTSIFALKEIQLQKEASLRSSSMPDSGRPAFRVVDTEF
Procedure, shortened: as §1

[7] = target: T7, ~100 representative kinases (Homo sapiens, UniProt Q13627); conditions: Protein DYRK1A; average of three replicates
T7 construct: Recombinant protein kinase domains with a concentration of 2 μM
Procedure, shortened: as §1

[8] = target: T8, ~100 representative kinases (Homo sapiens, UniProt Q96NX5); conditions: Protein CAMK1G; average of three replicates
T8 construct: Recombinant protein kinase domains with a concentration of 2 μM
T8 sequence (Q96NX5 whole entry, the tested form may be a part): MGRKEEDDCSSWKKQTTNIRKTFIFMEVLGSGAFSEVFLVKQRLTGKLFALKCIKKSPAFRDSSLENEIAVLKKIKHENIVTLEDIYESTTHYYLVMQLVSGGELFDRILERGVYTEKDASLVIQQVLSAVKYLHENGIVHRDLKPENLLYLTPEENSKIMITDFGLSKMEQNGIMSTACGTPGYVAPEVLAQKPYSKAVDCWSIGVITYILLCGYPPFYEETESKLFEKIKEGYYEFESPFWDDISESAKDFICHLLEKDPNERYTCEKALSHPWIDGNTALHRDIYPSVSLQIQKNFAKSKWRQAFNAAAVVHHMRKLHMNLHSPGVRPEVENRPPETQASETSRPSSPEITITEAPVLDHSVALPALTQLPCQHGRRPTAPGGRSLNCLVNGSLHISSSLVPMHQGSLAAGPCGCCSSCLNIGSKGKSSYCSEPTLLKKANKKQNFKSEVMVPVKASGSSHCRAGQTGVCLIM
Procedure, shortened: as §1

[9] = target: T9, ~100 representative kinases (Homo sapiens, UniProt Q9UEW8); conditions: Protein STK39; DSF; average of three replicates
T9 construct: Recombinant protein kinase domains with a concentration of 2 μM
Procedure, shortened: as §1

[10] = target: T10, ~100 representative kinases (Homo sapiens, UniProt Q9UPE1); conditions: Protein SRPK3; DSF; average of three replicates
T10 construct: Recombinant protein kinase domains with a concentration of 2 μM
T10 sequence (Q9UPE1 whole entry, the tested form may be a part): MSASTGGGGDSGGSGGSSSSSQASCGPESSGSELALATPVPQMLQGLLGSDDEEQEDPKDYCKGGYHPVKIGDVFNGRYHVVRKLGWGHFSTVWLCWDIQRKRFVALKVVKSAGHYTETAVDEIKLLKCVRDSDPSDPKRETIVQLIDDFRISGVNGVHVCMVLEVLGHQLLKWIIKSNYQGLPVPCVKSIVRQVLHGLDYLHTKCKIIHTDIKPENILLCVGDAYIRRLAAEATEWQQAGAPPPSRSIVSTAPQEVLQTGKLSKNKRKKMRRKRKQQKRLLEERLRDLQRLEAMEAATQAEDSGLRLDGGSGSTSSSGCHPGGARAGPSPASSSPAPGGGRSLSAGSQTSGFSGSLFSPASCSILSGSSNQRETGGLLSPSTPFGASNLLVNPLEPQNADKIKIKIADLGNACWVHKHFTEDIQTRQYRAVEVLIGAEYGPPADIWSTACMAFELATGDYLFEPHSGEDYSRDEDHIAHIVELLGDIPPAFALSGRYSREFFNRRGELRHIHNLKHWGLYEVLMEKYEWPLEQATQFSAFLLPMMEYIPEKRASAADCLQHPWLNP
Procedure, shortened: as §1

[11] = protein PCTK1, average of three replicates

| Compound | dTm [1] [K] | dTm [2] [K] | dTm [3] [K] | dTm [4] [K] | dTm [5] [K] | dTm [6, 11] [K] | dTm [7] [K] | dTm [8] [K] | dTm [9] [K] | dTm [10] [K] | dTm [6] [K] |
| --- | --- | --- | --- | --- | --- | --- | --- | --- | --- | --- | --- |
| O=C(Nc1cccc(-c2c[nH]c3ncnc(N4CCOCC4)c23)c1)C1(C(=O)Nc2cc(Br)c(F)cc2F)CC1 [Compound 25] | 1.39 | 11.56 | -1.75 | 5.98 | 5.47 | -0.86 | 0.31 | 4.91 | -0.03 | 3.28 |  |
| O=C(Nc1cccc(-c2c[nH]c3ncnc(N4CCOCC4)c23)c1)C1(C(=O)Nc2ccc(F)c(Br)c2F)CC1 [Compound 26] | 4.55 | 9.02 | -2.66 | 6.98 | 5.24 | -1.22 | 0.19 | 4.69 | 0.00 | 2.55 |  |
| O=C(Nc1cc(F)cc(Br)c1)C1(C(=O)Nc2cccc(-c3c[nH]c4ncnc(N5CCOCC5)c34)c2)CC1 [Compound 27] | 4.18 | 6.66 | -1.53 | 4.57 | 5.62 | 0.18 | -0.23 | 3.15 | 0.00 | 0.82 |  |
| CC(C)(C)c1cc(NC(=O)Nc2cccc(-c3c[nH]c4ncnc(N5CCOCC5)c34)c2)n(-c2ccc3ncccc3c2)n1 [Compound 28] | 16.99 | 32.83 | 0.00214 | 7.28 | 6.08 | 15.55 | 7.41 | 6.01 | 7.55 | 9.26 |  |
| Cc1ccc(-n2nc(C(C)(C)C)cc2NC(=O)Nc2cccc(-c3c[nH]c4ncnc(N5CCOCC5)c34)c2)cc1 [Compound 29] | 18.71 | 37.18 | -0.60 | 4.46 | 5.30 | 16.54 | 2.14 | 3.88 | 6.45 | 6.09 |  |
| Cc1ccc(-n2nc(C(C)(C)C)cc2NC(=O)Nc2cccc(-c3c[nH]c4nc(Cl)nc(N5CCOCC5)c34)c2)cc1 [Compound 30] | 9.71 | 18.85 | 0.13 | 2.15 | 1.92 | 3.37 | -4.19 | -0.26 | 1.34 | 3.14 |  |
| CC(=O)N1CCN(c2nc(Cl)nc3[nH]cc(-c4cccc(NC(=O)Nc5cc(C(C)(C)C)nn5-c5ccc(C)cc5)c4)c23)CC1 [Compound 31] | 11.86 | 4.38 | -0.27 | 1.71 | 1.72 | 5.50 | -1.38 | 0.05 | 1.08 | 3.85 |  |
| CCSc1nc(NC)c2c(-c3cccc(NC(=O)Nc4cc(C(C)(C)C)nn4-c4ccc(C)cc4)c3)c[nH]c2n1 [Compound 32] | 9.18 | 0.90 | -0.0148 | 6.59 | 0.66 | 3.77 | 0.57 | 0.27 | 0.77 | 1.35 |  |
| COc1cc(C(=O)N2CCOCC2)c(F)cc1Nc1nc(N(C)C)c2c(Cl)c[nH]c2n1 [Compound 36] | 0.85 | -0.49 | -0.44 | 10.39 | 10.31 | 0.43 | 3.71 | 4.24 | 2.35 | 1.84 |  |
| COc1cc(S(C)(=O)=O)ccc1Nc1nc(N(C)C)c2c(Cl)c[nH]c2n1 [Compound 37] | 0.37 | 0.14 | -0.63 | 7.87 | 4.74 | -0.043 | 2.45 | 1.99 | 3.58 | 0.46 |  |
| COc1cc2c(Oc3ccc(NC(=O)C4(C(=O)Nc5ccc(F)cc5)CC4)cc3F)ccnc2cc1OCCCN1CCOCC1 [Foretinib, reference compound] | 9.64 | 6.96 | 0.08 | 2.21 | 2.73 |  | 4.04 | 3.09 | 0.70 | 7.41 | 4.52 |
